Reference: US10023582B2, “6-aryl amino pyridone formamide compound crystal and preparation method therefor” (Chia Tai Tianqing Pharmaceutical Group Co., Ltd., priority 2014, dated 2018)

Assay: Stability test (influencing factors: high temperature/humidity and strong light irradiation), total impurities
Type: physicochemical
Protocol: A suitable amount of the crystal of the compound of formula (I) prepared in Example 4 was accurately weighed, and methanol was then added thereto to dissolve the crystal. It was diluted quantitatively to obtain a solution containing about 50 μg of the compound per 1 ml of the solution. 10 μl of the solution was accurately measured and injected into the liquid chromatograph, and the chromatogram was recorded. In addition, a suitable amount of the compound of formula (I) was weighed as a control, and measured by the same method as described in the above. The purity was calculated through external standard method based on peak areas.
Referring to the test method of influencing factors for raw materials described in the Chinese Pharmacopoeia, 2010 edition, Part II, Appendix XIX C, a high-temperature experiment (40° C.±2° C. and a relative humidity of 75%±5%) and strong light irradiation experiment (4500l×±500l×) were conducted on the crystal of the compound of formula (I) prepared in Example 4 for 10 days, respectively. Samples were taken on day 0 and day 10 to measure a total amount of impurities and determine the stability.

Total amount of impurities (%) (At 40° C., 10 days (40° C.±2° C., relative humidity 75%±5%)): 0.60%
Total amount of impurities (%) (Day 0): 0.57%
Total amount of impurities (%) (Irradiation for 10 days (strong light, 4500l×±500l×)): 0.68%
SMILES: Cn1c(Nc2ccc(I)cc2Cl)c(C(=O)NOCCO)c2occc2c1=O [6-(2-chloro-4-iodophenylamino)-N-(2-hydroxylethyoxyl)-5-methyl-4-oxo-4,5-dihydrofuro[3,2-c]pyridine-7-carboxamide]
